# Laboratory results from PubChem BioAssay (NCI).
#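 Cultured in 96-well plates, cells were exposed to test compound for 48 hours across five concentrations. GI50 = concentration required for 50% inhibition of growth. Definition used: TGI = concentration required for complete inhibition of growth.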
# Key:
# Experiment in all cases: NCI anticancer screen, dose series, 48 h
# SF-295 CNS = tested on: SF-295 CNS
# HOP-62 NSCLC = tested on: HOP-62 NSCLC
# TK-10 renal = tested on: TK-10 renal
# HCC-2998 colon = tested on: HCC-2998 colon
# IGROV1 ovarian = tested on: IGROV1 ovarian
# SF-268 CNS = tested on: SF-268 CNS
# HL-60(TB) leukemia = tested on: HL-60(TB) leukemia
# SK-MEL-2 melanoma = tested on: SK-MEL-2 melanoma
# SK-MEL-5 melanoma = tested on: SK-MEL-5 melanoma
# CAKI-1 renal = tested on: CAKI-1 renal
# MALME-3M melanoma = tested on: MALME-3M melanoma
# COLO 205 colon = tested on: COLO 205 colon
# NCI-H23 lung = tested on: NCI-H23 lung
# OVCAR-5 ovarian = tested on: OVCAR-5 ovarian
# SN12C renal = tested on: SN12C renal
# RXF 393 renal = tested on: RXF 393 renal
# MDA-MB-435 = tested on: MDA-MB-435
# MDA-MB-231 breast = tested on: MDA-MB-231 breast
SMILES,TGI (SF-295 CNS) [µM],TGI (HOP-62 NSCLC) [µM],TGI (TK-10 renal) [µM],TGI (HCC-2998 colon) [µM],TGI (IGROV1 ovarian) [µM],TGI (SF-268 CNS) [µM],TGI (HL-60(TB) leukemia) [µM],TGI (SK-MEL-2 melanoma) [µM],TGI (SK-MEL-5 melanoma) [µM],TGI (CAKI-1 renal) [µM],TGI (MALME-3M melanoma) [µM],TGI (COLO 205 colon) [µM],TGI (NCI-H23 lung) [µM],TGI (OVCAR-5 ovarian) [µM],TGI (SN12C renal) [µM],TGI (RXF 393 renal) [µM],TGI (MDA-MB-435) [µM],TGI (MDA-MB-231 breast) [µM],GI50 (OVCAR-5 ovarian) [µM]
COc1cc2c(cc1OC)C(C(CO)CO)N(CC(O)CCl)CC2 (centres undefined),> 100,> 100,> 100,> 100,> 100,> 100,> 100,> 100,> 100,> 100,> 100,> 100,> 100,> 100,–,–,–,–,–
O=c1[nH]c(=O)n(C2OC(COP(=O)(O)OP(=O)(O)OC3OC(CO)C(O)C(O)C3O)C(O)C2O)cc1F (centres undefined),> 100,4.3,30.4,> 100,6.26,> 100,> 100,> 91.3,23.7,18.3,20.9,7.14,> 31.5,5.33,> 100,0.529,–,–,–
CN(C)c1ccc(C(=C(c2ccc(N(C)C)cc2)c2ccc(N(C)C)cc2)c2ccc(N(C)C)cc2)cc1,27.8,> 100,31.5,35.3,34,56.4,26.5,28.5,31.8,28,32.6,> 100,33.6,> 100,35.2,25.2,–,–,–
NC(CCCC(N)P(=O)(O)c1ccccc1)P(=O)(O)c1ccccc1 (centres undefined),> 261,> 261,> 261,> 261,> 261,> 261,> 261,> 261,–,–,> 261,> 261,> 261,–,> 261,> 261,–,–,–
Cc1ccc(S(=O)(=O)N/N=C(\c2nc3ccc(Cl)cc3[nH]c2=O)C(O)c2cccc([N+](=O)[O-])c2)cc1 (centres undefined),> 100,> 100,> 100,> 100,> 100,> 100,> 100,> 100,> 100,> 100,> 100,> 100,> 100,> 100,> 100,> 100,–,–,–
COC(=O)/C=C\n1c(C)cc(=O)[nH]c1=O,> 100,> 100,> 100,> 100,> 100,> 100,–,> 100,> 100,–,> 100,> 100,> 100,> 100,> 100,> 100,> 100,–,–
N#CC1=C(N)n2c(s/c(=C\c3ccc(Cl)cc3)c2=O)=C(c2nc3ccccc3[nH]2)C1c1ccc(Cl)cc1 (centres undefined),–,4.68,2.62,1.7,9.71,7.11,6.45,4.21,11.3,10.7,4.74,6.38,1.58,3.66,4.6,–,–,–,–
CCCSc1ccc2[nH]c(N3C(=O)/C(=C/c4ccco4)N=C3c3ccccc3)cc2c1,–,> 50,–,> 50,> 50,> 50,> 50,24.4,30.3,> 50,> 50,32.8,> 50,> 50,> 50,> 50,28,–,–
Cc1ccc(NC(=O)C2C(=O)N(c3ccc(C)cc3)C(=O)/C2=N\NC(N)=S)cc1 (centres undefined),> 100,> 100,> 100,> 100,> 100,> 100,–,> 100,> 100,> 100,> 100,> 100,> 100,> 100,> 100,> 100,–,–,–
COc1cc(C2c3cc4c(cc3[C@@H](Nc3ccccc3)C3COC[C@H]23)OCO4)cc(OC)c1O (some centres undefined),3.36,> 100,> 100,> 100,> 100,> 100,–,–,68.9,–,–,70.7,–,9.83,54.3,–,–,24.5,–
CN(C)CC(C)(C)/C(=N\Nc1ccccc1)c1ccccc1,46.4,> 100,61.1,–,> 100,> 100,50.6,> 100,> 100,–,> 100,> 100,> 100,> 100,> 100,> 100,–,–,–
CC(O)c1cc2c(s1)C(=O)c1sccc1C2=O (centres undefined),0.191,0.406,0.459,0.402,0.725,0.61,> 100,0.215,0.0362,1.19,0.0486,1.09,–,0.368,0.192,0.351,0.0522,–,–
COc1cc2c(c(OC)c1OC)-c1ccc(SC)c(=O)cc1[C@@H](NCc1ccc(C#N)cc1)CC2,–,> 100,> 100,0.00662,> 100,–,0.0089,–,15.6,> 100,> 100,0.0128,0.00885,> 100,> 100,0.00508,–,–,3.15
CCOC(=O)C1(C/C=C(/C)Cl)CCCC1=O (centres undefined),> 100,> 100,> 100,–,> 100,> 100,> 100,> 100,> 100,> 100,> 100,> 100,> 100,> 100,> 100,> 100,–,–,–
Cc1c(Cl)nc(Nc2nc3ccccc3[nH]2)nc1Cl,> 100,–,> 100,–,> 100,> 100,> 100,> 100,> 100,71.9,> 100,> 100,> 100,> 100,> 100,> 100,> 100,–,–
O=C(/N=C/c1c(O)c2ccccc2oc1=O)Nc1ccccc1,> 100,–,> 100,> 100,> 100,> 100,> 100,80.4,> 100,55.3,94,> 100,> 100,> 100,> 100,91.8,–,–,–
CC(C)(C)N=NNc1cn(C2OC(CO)C(O)C2O)c(=O)[nH]c1=O (centres undefined),> 100,> 100,> 100,> 100,> 100,> 100,> 100,> 100,> 100,> 100,> 100,> 100,> 100,> 100,> 100,> 100,–,–,–
Cc1cccc2c(=O)c([Se]c3coc4c(C)cccc4c3=O)coc12,17.8,32.9,69.7,44.8,26.5,36.8,> 100,33.5,32.7,48.4,33.6,–,32.2,34.7,37.9,32.2,–,–,–
Cc1nc(Nc2ccc(Cl)cc2)sc1C(=O)NNc1ccc([N+](=O)[O-])cc1[N+](=O)[O-],38.5,25.2,37.2,30,46.6,38.8,43.5,32.7,30.2,44.1,36.2,39.9,35.1,30.7,36.2,30.7,–,–,–
COc1ccc(Nc2nc3ccc(C(F)(F)F)cc3nc2-c2ccccc2)cc1OC,44.9,> 100,–,41.3,> 100,> 100,> 100,> 100,> 100,86.1,> 100,91.2,> 100,> 100,> 100,83.6,–,–,–
O=C1c2ccc(O)cc2C(=O)c2ccc(O)cc21,> 100,> 100,> 100,> 100,> 100,> 100,> 100,> 100,> 100,> 100,> 100,> 100,> 100,> 100,> 100,91.8,–,–,–
CCOC(=O)c1cc(-c2cc(OC)c(OC)c([N+](=O)[O-])c2)c([N+](=O)[O-])n1C,> 10,–,> 10,> 10,> 10,> 10,> 10,> 10,–,–,> 10,–,> 10,> 10,> 10,> 10,4.72,–,–
CCc1cc(Cc2cc(Cl)c(NC(=O)C(=O)C3NC(=O)NC3=O)c(CC)c2)cc(Cl)c1NC(=O)C(=O)C1NC(=O)NC1=O (centres undefined),> 100,> 100,> 100,> 100,> 100,> 100,> 100,> 100,> 100,> 100,> 100,> 100,72.6,> 100,> 100,59.9,–,–,–
CC(C)=CC(=O)C/C(=N\NC(N)=S)C(=O)Nc1ccc(Cl)cc1,> 100,–,> 100,> 100,> 100,> 100,> 100,> 100,> 100,> 100,> 100,> 100,> 100,> 100,> 100,> 100,–,–,–
N/C(=N\S(=O)(=O)c1ccc(S(=O)(=O)c2ccccc2)s1)Nc1ccc(Cl)cc1,47,39.3,51.1,–,31.7,47.7,53.8,31.6,32.5,–,47.9,39.4,90.4,97.6,36.3,> 100,–,28.8,–
O=C1Nc2ccccc2C12CCNC2Cc1ccccc1 (centres undefined),> 100,> 100,> 100,> 100,> 100,> 100,> 100,> 100,> 100,> 100,> 100,> 100,> 100,> 100,–,–,–,–,–
O=C(c1ccc(Cl)cc1)c1ccc(OCCCOc2ccc(C(=O)c3ccc(Cl)cc3)cc2)cc1,> 100,> 100,> 100,> 100,> 100,> 100,> 100,> 100,> 100,> 100,> 100,> 100,> 100,> 100,> 100,> 100,–,–,–
Cc1c(Cl)c2ccccc2n1S(=O)(=O)c1ccccc1,> 100,> 100,> 100,> 100,> 100,> 100,78.8,> 100,> 100,> 100,> 100,> 100,> 100,> 100,–,–,–,–,–
COCCCNC(=O)C1C(=O)N(CCCOC)C(=O)/C1=N\N (centres undefined),> 100,> 100,> 100,> 100,–,> 100,> 100,> 100,> 100,–,> 100,> 100,> 100,> 100,> 100,> 100,–,–,–
COc1ccc(-c2cc(=O)c3cc4c(cc3[nH]2)OCO4)cc1OC,> 100,> 100,> 100,> 100,> 100,> 100,> 100,> 100,> 100,> 100,> 100,> 100,> 100,–,> 100,> 100,–,–,–
